Results taken from patent US9198903B2, “Method of treating or preventing thrombosis in a patient with 5-HT2A receptor antagonist thromboserin” (Thromboserin Limited, priority 2007, dated 2015).

Assays:
[1] = in the presence of hypokalaemia; cited from earlier work
alpha-1 adrenergic = conditions: cited from earlier work
[2] = Skin bleeding time in randomised double blind cross-over study; type: in vivo, human patients; conditions: first 13 patients, drug 10 mg twice daily vs placebo cross-over courses
From the text: Objective: To evaluate whether inhibition platelets can be accompanied by no increase in bleeding time, by means of serotonin 5HT2A receptor antagonism. Study population: Patients with a history of intermittent claudication (IC) or coronary heart disease (CHD) recruited. There were 48 patients studied, all of whom were Caucasian, aged 69±6.6 years and of which 38 were male and 10 female. Patients with IC have clinical findings of peripheral vascular disease and an ABPI <0.9. Patients with CHD have chronic stable angina and angiographic evidence of coronary artery disease (stenosis of >70% in at least one major coronary artery). Study design: Randomised controlled double blind cross-over study: 2 weeks 5HT2A receptor antagonist (Thromboserin) (10 mg twice daily) or placebo, wash out period of 2 weeks and cross over to other arm for further two weeks. Side effects, and compliance documented in both groups. Skin bleeding time was performed, contra-laterally from venepuncture. A suitable area of forearm was shaved if necessary and cleaned with alcohol swab. A sphygmomanometer cuff was inflated on the upper arm to 40 mmHg. One incision was made with Surgicutt bleeding device ([…], Hertfordshire), and a stopwatch was started. […] The bleeding time was recorded to the nearest 30 seconds.

platelets = assay: Platelet count (full blood count) in cross-over study; type: in vivo, human patients
Experimental: (§1) Study design: Randomised controlled double blind cross-over study: 2 weeks 5HT2A receptor antagonist (Thromboserin) (10 mg twice daily) or placebo, wash out period of 2 weeks and cross over to other arm for further two weeks. Side effects, and compliance documented in both groups. Blood sampling/Assays: Blood samples obtained at baseline, 2 weeks (the end of phase 1), 4 weeks (the end of phase 2), at 6 weeks (the end of phase 3) and 2 weeks after the completion of the study. The following assays were obtained. • Full blood count, urea, electrolytes, creatinine, liver function tests and glucose • Blood levels of Thromboserin • Bleeding time • Surface expression of the platelet activation markers P-selectin and fibrinogen. These were measured using whole blood flow cytometry. Measurement after incubation with agonists such as ADP was also performed in order to assess the platelet responsiveness to stimuli. • Ultegra Rapid Platelet Function Assay (RPFA). Methods: Venepuncture: Venous blood was collected into vacutainers by clean venepuncture with 19G butterfly and adaptor, using tourniquet to locate the vein only. The first 5 mL of blood was used for full blood count, and subsequent samples collected in order for the platelet tests and others. Clinical symptoms and signs were also recorded. The other observations were: routine full blood count by Clinical Haematology Laboratory, ARI, and U&Es, creatinine, Liver Function tests and blood glucose by Clinical Biochemistry Laboratory, ARI.

[3] = Clinical biochemistry (liver function tests, glucose, urea, creatinine, electrolytes) in cross-over study; type: in vivo, human patients; conditions: Thromboserin vs placebo
Experimental: as §1, with “Venepuncture:” for “Venepuncture: Venous blood was collected into vacutainers by clean venepuncture with 19G butterfly and adaptor, using tourniquet to locate the vein only. The first 5 mL of blood was used for full blood count, and subsequent samples collected in order for the platelet tests and others.”

O=C(c1ccc(F)cc1)C1CCN(CCn2c(=O)[nH]c3ccccc3c2=O)CC1 [Ketanserin]
Pro-arrhythmic properties (in words) [1]: pro-arrhythmic properties | Alpha-1 adrenergic activity (in words) (alpha-1 adrenergic): alpha-1 adrenergic antagonistic properties

CN(C)C(C)(C)CSc1nc2ccccc2cc1-c1ccccc1.Cl [Thromboserin]
Change of bleeding time (in words) [2]: no significant rise in bleeding time | Probability of no Difference: Platelet count (platelets; Thromboserin 10 mg twice daily 2 weeks vs placebo, Wilcoxon): 0.0416 | Probability of no Difference: Platelet count over 6 weeks (platelets; Thromboserin vs placebo, Repeated measures ANOVA): 0.0233 | Probability of no Difference: Platelets, excluding 4 patients With abnormal count (platelets; Thromboserin vs placebo, Wilcoxon): 0.0214 | Probability of no Difference: Alanine amino transferase ([3]; Wilcoxon): 0.0021 | Probability of no Difference: Gamma GT ([3]; Wilcoxon): 0.0216 | Probability of no Difference: Gamma GT, In patients with abnormal values ([3]; Wilcoxon): 0.0266 | Probability of no Difference: Alkaline phosphatase ([3]; paired t test): 0.0034
